Legend:
[1] = molecular target: T1, sec7-domains of cytohesin-2 (ARNO) (Homo sapiens, UniProt Q99418); assay: guanine nucleotide exchange assay (GDP/GTP exchange on [Δ17]ARF1, tryptophan fluorescence); type: biochemical; details: for IC50: 250 nM [Δ17]ARF1, 10 nM ARNO-Sec7, 50 µM GTP, PBS pH 7.4, 37°C, read-out: IC50 value measured for the isolated Sec-7 domain of cytohesin-2; for inhibition of the sec7-domain of the isolated cytohesin-2 (relative exchange rate): 5µM amide compared with 5µM control SecinH3 (K), whose rate is set to 1, Fig. 1; for dual activity in cell adhesion and nucleotide exchange assays (summary in words): across nucleotide exchange and cell adhesion assays
T1 construct: ARNO-Sec7 (amino acids 50-255 of ARNO) were expressed in Escherichia coli; inferred from pET15 vector and Ni-NTA purification; made in house; host or cells: Escherichia coli
T1 sequence (Q99418 50-255): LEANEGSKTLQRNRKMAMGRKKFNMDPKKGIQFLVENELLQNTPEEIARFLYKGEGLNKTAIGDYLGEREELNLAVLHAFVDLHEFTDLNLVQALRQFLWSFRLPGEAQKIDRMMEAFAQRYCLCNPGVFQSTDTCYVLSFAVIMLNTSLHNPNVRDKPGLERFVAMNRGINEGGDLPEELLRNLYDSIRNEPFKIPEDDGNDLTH
Procedure: The inhibition of the exchange activity of the sec7-domains of cytohesin-2 (ARNO) of the amides according to formulas (5) to (30) was determined by a guanine nucleotide exchange assay.
For this purpose, the sec7-domains of cytohesin-2 (ARNO-Sec7) and [Δ17]ARF1, a mutant of the ADP-ribosylation factor (ARF) protein, were subcloned into pET15 vectors (Novagen) as described in Hafner, M. et al. Nature 444, 941-944 (2006). N-terminal truncated [Δ17]ARF1 (amino acids 18-181), lacking the first 17 amino acids and ARNO-Sec7 (amino acids 50-255 of ARNO) were expressed in Escherichia coli and purified by Ni-NTA chromatography (Ni-NTA agarose, Qiagen).
The exchange from […] (GDP) to guanidine-triphosphate (GTP) induces a conformation change of the ribosylation factor, as a result of which the fluorescence of a tryptophan radical of the protein is increased. GDP/GTP exchange was measured on [Δ17][…] by tryptophan fluorescence because a large increase in intrinsic fluorescence of ARF occurs upon exchange of GDP for GTP. All measurements were performed in PBS (137 mM NaCl, 2.7 mM KCl, 10.2 mM Na2HPO4, 1.8 mM KH2PO4) pH 7.4, 3 mM MgCl2 at 37°C.
[Δ17]ARF1 (1 µM) in PBS without MgCl2 was preincubated with 80 µM GDP in the presence of 2 mM ethylenediaminetetraacetic acid (EDTA) for 15 minutes. The bound GDP was stabilized by addition of MgCl2 at a final concentration of 3 mM and incubation for 5 minutes. For each exchange reaction 250 nM [Δ17]ARF1 was mixed with 10 nM ARNO-Sec7 (total volume 200 µl) in the absence or presence of inhibitoring amides according to formulas (5) to (30). The reaction was started by injection of 50 µM GTP.
The tryptophan fluorescence was measured at excitation and emission wavelength of 280 nm and 340 nm respectively. All fluorescent measurements were performed with a Varioskan microplate reader (Thermo Scientific), in 96-well plates. For analysis all data were fitted by linear regression.
The pan-active cytohesin inhibitor "SecinH3", a 1-, 2-, 4-substituted triazole according to formula (9) as disclosed in DE 10 2004 055 998 served as the control (K). The relative exchange rate of the control SecinH3 (K) was set to be 1.
The relative exchange rate was determined by comparing the initial linear rise of the fluorescence signal (exchange rate) in the presence of 5µM of the amides according to formulas (5) to (30) with the exchange rate in the presence of 5µM control SecinH3 (K), whereas the latter was set to be 1.
Further, the IC50 value inhibition of the sec7-domain of the isolated cytohesin-2 was determined. The IC50 value was be determined by plotting the initial linear rise of the fluorescence signal against the added concentrations of the amide. The IC50 value corresponds to the concentration of the amide at which the activity of the protein is reduced to half.

[2] = tested on: Drosophila insulin signaling (d4E-BP mRNA levels in Drosophila S2 cells); assay: Drosophila insulin signaling assay, d4E-BP mRNA by quantitative RT-PCR; type: cell-based; details: 5 µg/ml insulin; for d4E-BP transcript levels: 10 µM amide for 18 hours, control SecinH3 (K) set to 1, Fig. 2
Procedure: In order to evaluate potential interference of the amides according to formulas (5) to (30) with Drosophila insulin signaling, S2 (Schneider 2 insect cell line, Invitrogen) cells were grown under starvation conditions and subsequently treated with insulin. This triggers a strong activation of the insulin signaling cascade resulting in the nuclear exclusion of the forkhead-box transcription factor dFOXO, which in turn down-regulates the expression of the transcriptional repressor d4E-BP (eIF4E-binding protein). […] This was measured by quantitative RT-PCR and compared to the effect of the control SecinH3 (K) in the same assay.
0.5 x 10^6 S2 cells were grown in 24-well dishes in medium (Schneiders Drosophila Medium, PAN Biotech) without FCS (heat-inactivated fetal calf serum) representing starvation condition. Six hours after seeding cells were treated for 18 hours with 10 µM of the respective amide according to formulas (5) to (30) or 10 µM SecinH3 (K) as reference. 22 hours after seeding cells were treated with 5 µg/ml insulin (Sigma). Controls were performed without amide and/or without insulin treatment. The amides were dissolved in dimethyl sulfoxide (DMSO). Final DMSO concentration in the cell culture medium was 0.5 %.
NucleoSpin 8 RNA Kit (Macherey-Nagel) was used for RNA preparation according to manufacturer's instructions. Genomic DNA digestion and first strand cDNA synthesis was carried out with 250 ng total RNA using QuantiTect Reverse Transkription Kit (Qiagen). Quantitative PCR was performed with the iQ5 Real-Time PCR detection system (Bio-Rad) and iQ SYBR Green Super Mix (Bio-Rad). Three reactions were done in parallel for each template. Real Time PCR was analysed using Bio-Rad iQ5 Optical System Software and Microsoft Excel.
The d4E-BP mRNA level after treatment of cells with the amides according to formulas (5) to (30) compared to the control SecinH3 is shown in Fig. 2. The d4E-BP mRNA level after treatment of cells with the control SecinH3 (K) was set to be 1.

[3] = tested on: adhesion of the T cell line Jurkat E6 to an immobilized ICAM-1-Fc-fusion protein; assay: cell adhesion assay, Jurkat E6 cells to immobilized ICAM-1-Fc-fusion protein; type: cell-based, human; details: 25 µM amide, OKT3 or PMA stimulation; 100% adhesion = 25 µM control SecinH3 (K); Fig. 3
Procedure: The ability of the amides according to formulas (5) to (30) to inhibit adhesion of the T cell line Jurkat E6 to an immobilized ICAM-1(Inter-Cellular Adhesion Molecule 1)-Fc-fusion protein was tested. On the T cell side, this interaction is exclusively mediated by the β-2 integrin LFA-1 that was enabled to bind to immobilized ICAM-1 through stimulation of Jurkat cells with an anti-TCR (T cell receptor) antibody or with the phorbol ester PMA (Phorbol 12-myristate 13-acetate). Cell adhesion to ICAM-Fc was carried out on 96-well dishes and was read out by fluorescence detection of total input versus bound cells which had been labeled with the DNA dye H33342.
Jurkat E6.1 cells were incubated in HBSS (Hank's BSS, PAA), 0.5% DMSO and, where indicated, 25 µM of the respective amide for one hour at 37°C, 5% CO2. After 30 minutes the cells were labeled with the fluorochrome bisbenzimide trihydrochloride H33342 (Sigma-Aldrich) at […] for 30 minutes at 37°C. 2 x 10^5 cells/ well were subsequently dispensed into a 96-well plate at 100µl/well. Prior to use plates were coated with 12µg/ml goat anti-human IgG for 90 minutes at 21°C, blocked with 1% BSA (Bovine serum albumin) in PBS overnight and incubated for 60 minutes with culture supernatants from CV-1 cells expressing an ICAM-1-Fc fusion protein.
Cells were either stimulated with 5 µg/ml purified anti CD3 antibody (OKT3, hybridome of ATCC, mAb OKT3 purified on protein A, according to standard methods from Current Protocols in Immunology, 5th Ed., Coligan et al., Edts, Wiley 2004) or with 50 ng/ml PMA, respectively. Cells were allowed to adhere to the ICAM-1-Fc coated dishes for 15 minutes and unbound cells were washed off with Hank's BSS (PAA). Adherent cells were read out using a fluorescence plate reader (Synergy-HT1, Biotek) at 485 nm in triplicates.
"100% adhesion" corresponds to the mean of OKT3 and PMA stimulated samples treated with 25 µM control control Secin H3 (K) as reference.

SMILES | IC50 [1] [µM] | d4E-BP transcript levels [2] | increase in dFOXO-dependent d4E-BP transcript levels compared to the reference (K) ([2]; 10 µM amide) [fold] | dose-response behaviour of inhibition in nucleotide exchange assay [1] | potency in nucleotide exchange assay (summary in words) [1] | inhibition of the sec7-domain of the isolated cytohesin-2 (relative exchange rate) [1] | inhibition of the adhesion of the Jurkat E6.1 cells to ICAM-1 [3] | dual activity in cell adhesion and nucleotide exchange assays (summary in words) [1]
COc1nc(-c2ccc3c(c2)OCO3)n(-c2ccc(NC(=O)CSc3ccccc3)cc2)n1 [SecinH3, reference compound] | 11.4 |  |  |  |  |  |  | 
CC(C)(C)c1ccc(C(=O)Nc2ccc(NC(=O)/C=C/c3ccco3)cc2)cc1 [formula (5)] | 3.1 | increased | ~20 | displayed a dose-response behaviour | potent inhibitors | better than that of the control SecinH3 (K) | better than that of the control (K) | 
CC(C)(C)c1ccc(C(=O)Nc2ccc(NC(=S)NC(=O)c3cccs3)cc2)cc1 [formula (6)] | 8 | increased |  |  | potent inhibitors | better than that of the control SecinH3 (K) | better than that of the control (K) | 
COc1nc(-c2ccc(C)cc2)n(-c2ccc(NC(=O)/C=C/c3ccccc3)cc2)n1 [formula (7)] |  |  |  |  |  | better than that of the control SecinH3 (K) |  | 
COc1ccc(-n2c(SCCC(=O)NC(N)=O)nnc2-c2ccc(C(C)(C)C)cc2)cc1Cl [formula (11)] |  |  |  |  |  | better than that of the control SecinH3 (K) | better than that of the control (K) | dual activity
C=CCn1c(SCC(=O)Nc2nsc(-c3ccccc3)n2)nc2scc(-c3ccccc3)c2c1=O [formula (20)] | 2.1 | increased |  | displayed a dose-response behaviour | potent inhibitors |  |  | dual activity
CC(C)(C)c1ccc(C(=O)Nc2ccc(NC(=O)c3ccc4c(c3)OCO4)cc2)cc1 [formula (29)] |  |  |  |  |  |  | better than that of the control (K) | dual activity
